Columns and labels:
HT-29 = experiment: cells; details: Homo sapiens, HT-29, 48 h; for GI50: read-out: HT29 GI50; for CC50: read-out: HT29 LC50; for IC (TGI): read-out: HT29 TGI
In short: (§1)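 Colorimetric SRB read (490 nm) on triplicate wells after 48 h at 37 °C, 5% CO2. Dose range 10 to 10^−8 μg/ml; 5×10^3 cells/well pre-attached 18 h.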

A-549 = experiment: cells; details: Homo sapiens, A549, 48 h; for GI50: read-out: A549 GI50; for CC50: read-out: A549 LC50; for IC (TGI): read-out: A549 TGI
In short: as §1

LoVo = experiment: cells; details: Homo sapiens, LoVo, 48 h; for GI50: read-out: LOVO GI50; for CC50: read-out: LOVO LC50; for IC (TGI): read-out: LOVO TGI
In short: as §1

SK-MEL-28 = experiment: Inhibition of cells growth by colorimetric assay (SRB); details: Homo sapiens, SK-MEL-28, 48 h; for GI50: read-out: MEL-28 GI50; for CC50: read-out: MEL-28 LC50; for IC (TGI): read-out: MEL-28 TGI
In short: as §1

IGROV-1 = experiment: as above; details: Homo sapiens, IGROV-1, 48 h; for GI50: read-out: IGROV GI50; for CC50: read-out: IGROV LC50; for IC (TGI): read-out: IGROV TGI
In short: as §1

SK-BR-3 = experiment: as above; details: Homo sapiens, SK-BR-3, 48 h; for GI50: read-out: SK-BR3 GI50; for CC50: read-out: SK-BR3 LC50; for IC (TGI): read-out: SK-BR3 TGI
In short: as §1

DU-145 = experiment: as above; details: Homo sapiens, DU-145, 48 h; for GI50: read-out: DU145 GI50; for CC50: read-out: DU145 LC50; for IC (TGI): read-out: DU145 TGI
In short: as §1

HeLa-APL = experiment: as above; details: Homo sapiens, 48 h; for GI50: read-out: HELA-APL GI50; for CC50: read-out: HELA-APL LC50; for IC (TGI): read-out: HELA-APL TGI
In short: as §1

K-562 = experiment: as above; details: Homo sapiens, K562, 48 h; for GI50: read-out: K562 GI50; for CC50: read-out: K562 LC50; for IC (TGI): read-out: K562 TGI
In short: as §1

PANC-1 = experiment: as above; details: Homo sapiens, PANC-1, 48 h; for GI50: read-out: PANC-1 GI50; for CC50: read-out: PANC-1 LC50; for IC (TGI): read-out: PANC-1 TGI
In short: as §1

HeLa = experiment: as above; details: Homo sapiens, HeLa, 48 h; for GI50: read-out: HELA GI50; for CC50: read-out: HELA LC50; for IC (TGI): read-out: HELA TGI
In short: as §1

LNCaP = experiment: as above; details: Homo sapiens, LNCaP, 48 h; for GI50: read-out: LNCAP GI50; for CC50: read-out: LNCAP LC50; for IC (TGI): read-out: LNCAP TGI
In short: as §1

IGROV-ET = experiment: as above; details: Homo sapiens, 48 h; for GI50: read-out: IGROV-ET GI50; for CC50: read-out: IGROV-ET LC50; for IC (TGI): read-out: IGROV-ET TGI
In short: as §1

LoVo-Dox = experiment: as above; details: Homo sapiens, 48 h; for GI50: read-out: LOVO-DOX GI50; for CC50: read-out: LOVO-DOX LC50; for IC (TGI): read-out: LOVO-DOX TGI
In short: as §1

COc1c(C)cc2c(c1OC(=O)/C=C/c1ccccc1)[C@H]1N[C@@H](C2)[C@H](O)N2C1[C@@H]1SCC(NC(=O)C(F)(F)F)C(=O)OC[C@H]2c2c3c(c(C)c(OC(C)=O)c21)OCO3 (stereo partly drawn) [compound 40]
GI50 (HT-29): 337 nM | CC50 (HT-29): 3840 nM | IC (TGI) (HT-29): 1050 nM | GI50 (A-549): 195 nM | CC50 (A-549): 1030 nM | IC (TGI) (A-549): 447 nM | GI50 (LoVo): 213 nM | CC50 (LoVo): 1680 nM | IC (TGI) (LoVo): 552 nM | GI50 (SK-MEL-28): 162 nM | CC50 (SK-MEL-28): 688 nM | IC (TGI) (SK-MEL-28): 334 nM | GI50 (IGROV-1): 91.3 nM | CC50 (IGROV-1): 1280 nM | IC (TGI) (IGROV-1): 317 nM | GI50 (SK-BR-3): 42.6 nM | CC50 (SK-BR-3): 524 nM | IC (TGI) (SK-BR-3): 97.6 nM | GI50 (DU-145): 5630 nM | CC50 (DU-145): 1630 nM | IC (TGI) (DU-145): 160 nM | GI50 (HeLa-APL): 153 nM | CC50 (HeLa-APL): 775 nM | IC (TGI) (HeLa-APL): 344 nM | GI50 (K-562): 41.4 nM | CC50 (K-562): 776 nM | IC (TGI) (K-562): 131 nM | GI50 (PANC-1): 321 nM | CC50 (PANC-1): 2570 nM | IC (TGI) (PANC-1): 747 nM | GI50 (HeLa): 111 nM | CC50 (HeLa): 661 nM | IC (TGI) (HeLa): 276 nM | GI50 (LNCaP): 48.1 nM | CC50 (LNCaP): 509 nM | IC (TGI) (LNCaP): 162 nM | GI50 (IGROV-ET): 289 nM | CC50 (IGROV-ET): 980 nM | IC (TGI) (IGROV-ET): 533 nM | GI50 (LoVo-Dox): 354 nM | CC50 (LoVo-Dox): 2790 nM | IC (TGI) (LoVo-Dox): 810 nM

C=CCN1[C@@H]2c3c(cc(C)c(OC)c3O)C[C@H]1[C@H](O)N1C2[C@@H]2SCC(NC(C)=O)C(=O)OC[C@H]1c1c3c(c(C)c(OC(C)=O)c12)OCO3 (stereo partly drawn) [compound 41]
GI50 (HT-29): 42.7 nM | CC50 (HT-29): 14700 nM | IC (TGI) (HT-29): 120 nM | GI50 (A-549): 43.1 nM | CC50 (A-549): 125 nM | IC (TGI) (A-549): 73.5 nM | GI50 (LoVo): 37.8 nM | CC50 (LoVo): 14700 nM | IC (TGI) (LoVo): 94 nM | GI50 (SK-MEL-28): 33.7 nM | CC50 (SK-MEL-28): 123 nM | IC (TGI) (SK-MEL-28): 64.5 nM | GI50 (IGROV-1): 15.7 nM | CC50 (IGROV-1): 121 nM | IC (TGI) (IGROV-1): 43.7 nM | GI50 (SK-BR-3): 32.3 nM | CC50 (SK-BR-3): 352 nM | IC (TGI) (SK-BR-3): 72.2 nM | GI50 (DU-145): 45.3 nM | CC50 (DU-145): 274 nM | IC (TGI) (DU-145): 75.5 nM | GI50 (HeLa-APL): 30.1 nM | CC50 (HeLa-APL): 132 nM | IC (TGI) (HeLa-APL): 63.1 nM | GI50 (K-562): 20.4 nM | CC50 (K-562): 125 nM | IC (TGI) (K-562): 50.5 nM | GI50 (PANC-1): 37.7 nM | CC50 (PANC-1): 14700 nM | IC (TGI) (PANC-1): 100 nM | GI50 (HeLa): 28.2 nM | CC50 (HeLa): 120 nM | IC (TGI) (HeLa): 58.1 nM | GI50 (LNCaP): 0.95 nM | CC50 (LNCaP): 92.8 nM | IC (TGI) (LNCaP): 31.4 nM | GI50 (IGROV-ET): 41.8 nM | CC50 (IGROV-ET): 14700 nM | IC (TGI) (IGROV-ET): 87.1 nM | GI50 (LoVo-Dox): 270 nM | CC50 (LoVo-Dox): 14700 nM | IC (TGI) (LoVo-Dox): 1180 nM

— patent publication US7767659B2, “Synthesis of naturally occurring ecteinascidins and related compounds” (Pharma Mar, S.A., priority 2002, dated 2010)
